Results taken from patent EP0400562A1, “Pyrrolopyrimidines, their production and use as tumoricidal agents” (Takeda Chemical Industries, Ltd., priority 1989, dated 1990).
In brackets after ≈: the same amount, converted by molar mass.

Tested on: Human epidermoid carcinoma KB cells
Assay: cell growth inhibiting effect in KB cells (MTT method)
Assay type: cell-based
Conditions: 72 hours culture with compound, absorbance at 590nm, concentration required to decrease the number of cells in the untreated control group by 50%
Method: The cell growth inhibiting effect (IC₅₀)of the compounds obtained in the Examples described below in KB cells was determined by the following method.
Human epidermoid carcinoma KB cells (1 x 10⁴ cells/ml) prepared according to a conventional method were inoculated into each well of the 96-microwell plate (0.1ml in a well) and subjected to standing culture at 37°C under 5% CO₂ for 24 hours. To this was added a solution of one of the compounds obtained in the Examples in 10% MEM (Nissui Pharmaceutical Co. Ltd. Japan), and subjected again to standing culture at 37°C under 5% CO₂ for 72 hours. Then the culture was pipetted out, and another 0.1ml of the solution of MTT (Dojin Laboratories Japan) in 10 % MEM (1.0mg/ml) was added and incubated at 37°C for 4 hours. Then 0.1ml of the […] (Wako Pure Chemicals, Japan) was added and incubated at 37°C for further 24 hours. The absorbance at 590nm was measured and the IC₅₀ value of the compound was defined as the concentration of the compound required to decrease the number of cells in the untreated control group by 50%.

| IC50 (Homo sapiens, read-out: IC₅₀) [ng/mL] | Compound | IC₅₀ [µg/mL] |
| --- | --- | --- |
|  | Nc1nc(N)c2c(n1)NCC2CCNc1ccc(C(=O)N[C@@H](CCC(=O)O)C(=O)O)cc1 (stereo partly shown) [Example 10] | 0.0025 |
| 5 (≈ 7.8 nM) | CCCCCCCC(=O)Nc1nc(S)c2c(CNCc3ccc(C(=O)N[C@@H](CCC(=O)OCC)C(=O)OCC)cc3)c[nH]c2n1 [Example 13, diethyl N-[4-[N-(4-mercapto-2-octanoylamino-7H-pyrrolo[2,3-d]pyrimidin-5-ylmethyl)aminomethyl]benzoyl] -L-glutamate] |  |
|  | CN(CCC1CNc2nc(N)nc(N)c21)c1ccc(C(=O)N[C@@H](CCC(=O)O)C(=O)O)cc1 (stereo partly drawn) [Example 4, N-[4-[N-[2-(2,4-diamino-6,7-dihydro-5H-pyrrolo[2,3-d]pyrimidin-5-yl)ethyl]-N-methyl]aminobenzoyl]-L-glutamic acid] | 0.0025 |
|  | CN(CCc1c[nH]c2nc(N)nc(N)c12)c1ccc(C(=O)N[C@@H](CCC(=O)O)C(=O)O)cc1 [Example 6, N-[4-[N-[2-(2,4-diamino-7H-pyrrolo[2,3-d]pyrimidin-5-yl)ethyl]-N-methyl]aminobenzoyl]-L-glutamic acid] | 0.0013 |
